First: CC(C)(C)OC(=O)C1=C(c2ccccc2)C(c2ccccc2)OC1=O (stereo not given)
Second: O=C(C=Cc1ccccc1)Oc1ccccc1
The melting point of the first is lower: 109 to 111 °C for the first, 114 to 116 °C for the second.

First: O=C(CCl)Nc1cc2c(Nc3cc(Cl)c(Cl)cc3F)ncnc2cc1OCCOCCF
Second: CCOC(=O)c1cn(C)c2nc3cc(Cl)c(F)cc3cc2c1=O
The melting point of the first is lower: 167 to 169 °C for the first, 360 to 362 °C for the second.

First: CC(C)(C(=O)O)c1ccc(C(O)CCCN2CCC(=C3c4ccccc4CCc4ccccc43)CC2)cc1 (stereo not given)
Second: O=C(OCc1ccccc1)C1(Nc2ccccc2)CCN(CCc2ccccc2)CC1
The melting point of the first is higher: 135 to 137 °C for the first, 76.7 °C for the second.

First: Cc1ccc(C=C2CSCC3=C2N(CC(F)(F)F)NC3c2ccc(C)cc2)cc1 (stereo not given)
Second: Cc1ccc(S(=O)(=O)N2[C@@H](C(=N)NO)CC[C@H]2c2ccc(F)cc2)cc1 (racemic)
The melting point of the first is lower: 168 to 178 °C for the first, 217 °C for the second.

First: CCOC(=O)c1c2n(c3cc(Br)c(F)cc3c1=O)C(C)CS2 (stereo not given)
Second: CCOC(=O)c1cn(C2CC2)c2c(F)c(N3CC(O)C3)c(F)cc2c1=O
The melting point of the first is lower: 211 °C for the first, 260 to 270 °C for the second.

First: Cc1ccc(-c2nc(C(N)=O)cs2)cc1
Second: Cc1ccc(C(=O)Nc2nc(=O)n(C)cc2F)cc1
The melting point of the first is lower: 100 to 102 °C for the first, 229 to 230 °C for the second.

First: OCc1cnc2ccc(F)cc2c1O
Second: O=C(CBr)c1ccc(O)c(CO)c1
The melting point of the first is higher: 310 to 315 °C for the first, 117 to 119 °C for the second.

First: CCO[C@@H]1C[C@@H]2CN(C(=O)[C@@H](NC(=O)[C@H](C)NC)C3CCC(F)(F)CC3)[C@H](C(=O)N[C@@H]3CCOc4ccccc43)CN2C1
Second: CCCCNC(=O)[C@@H](C[C@H](O)[C@H](CC1CCCCC1)NC(=O)[C@H](Cc1cscn1)NC(=O)OC(C)(C)C)C(C)C
The melting point of the first is lower: 179 °C for the first, 201 to 203 °C for the second.

Compared with CCOC(=O)C1=C(N)C(OCC)=NS1(=O)=O, CCOC(=O)C(NC(=O)NC)C(=O)OCC is lower in melting point: 163 to 165 °C for the first, 139 °C for the second.

First: COc1cc(OC)c(-c2cc3ccccc3s2)cc1/C=C/C(=O)c1ccc(C(N)=O)cc1
Second: COc1ccccc1N(C(N)=O)c1ccc(CC(=O)O)cc1C
The melting point of the first is lower: 240 to 241 °C for the first, 260 to 264 °C for the second.

Compared with c1cncc(CCCN2CCc3[nH]c4ccccc4c3C2)c1, N#Cc1cc2c3ccccc3[nH]c(=O)n2n1 is higher in melting point: 223 to 225 °C for the first, 302 to 304 °C for the second.

Compared with COC(=O)C(Cc1ccc(OCCn2ccc3ccc(C(=O)C4CC4)nc32)cc1)OCC(F)(F)F (stereo not given), CCOC(=O)CCC(=O)c1ccc(CCNS(=O)(=O)c2cccc(C(F)(F)F)c2)cc1 is lower in melting point: 123 °C for the first, 83 to 85 °C for the second.

First: CC(=O)Nc1ccn(C2OC(COC(C)=O)C(Br)C2OC(C)=O)c(=O)n1 (stereo not given)
Second: CC(=O)OCC1OC(n2c(Cl)nc3cc(Cl)ccc32)C(OC(C)=O)C1OC(C)=O (stereo not given)
The melting point of the first is higher: 179 to 180 °C for the first, 98 to 100 °C for the second.

First: CC(C)(C)OC(=O)NC1CNC(=O)C12CC2 (stereo not given)
Second: COC(=O)N[C@@H]1Cc2ccccc2N(OC)C1=O
The melting point of the first is higher: 178 to 181 °C for the first, 117 to 119 °C for the second.

Compared with N#CSc1nc(I)ncc1Br, C#CCn1c(C)c(C)c2cnnc(OCc3ccccc3)c21 is lower in melting point: 199 to 202 °C for the first, 116 to 117 °C for the second.

Compared with CCCc1c(OCc2cccc(C(=O)OCC)c2OCC)ccc(C(C)=O)c1O, CCC(=O)c1ccc(C(CC(=O)Nc2cc(C(N)=O)ccc2C(C)(C)C)CC(C)C)c(OC)c1 (stereo not given) is higher in melting point: 59 to 62 °C for the first, 186 to 187 °C for the second.

First: O=c1ccc2c(F)cc(F)cc2[nH]1
Second: O=C1CCC2=C(CCc3cc(F)ccc32)N1
The melting point of the first is higher: 292 to 318 °C for the first, 223 to 224 °C for the second.

First: Cc1ccc(S(=O)(=O)OCCc2c(F)ccc(F)c2F)cc1
Second: CC(C)n1c(S(=O)(=O)c2ccc(OCc3ccccc3)cc2)nc2ccccc21
The melting point of the first is lower: 73 to 74 °C for the first, 94 to 96 °C for the second.

Compared with O=C(C=C(c1ccccc1Cl)n1cncn1)c1ccccc1, O=C(c1ccccc1)c1cccc(-c2cccc(Cn3cncn3)c2)c1 is higher in melting point: 79 to 81 °C for the first, 121 °C for the second.

First: CCCOc1ccc(S(=O)(=O)N2CCN(CC)CC2)cc1-c1nc2cc3ncn(Cc4ccc(F)cc4)c3cc2c(=O)[nH]1
Second: Cc1ccc2cccc(OCc3c(Cl)ccc(S(=O)(=O)N4CCCC4C(=O)NCc4ccccc4)c3Cl)c2n1 (stereo not given)
The melting point of the first is higher: 155 to 158 °C for the first, 143 °C for the second.

Compared with COc1ccc(CCN2CCC(N3CCc4ccc(CNC(C)=O)cc43)CC2)cc1, COCCOC1CCN(c2ccc(NC(=O)c3cnn(-c4ccc(Cl)cc4)c3C)cc2C#N)CC1 is higher in melting point: 151 to 152 °C for the first, 180 to 182 °C for the second.

Compared with O=C(NCC12CC3CC(CC(C3)C1)C2)c1cc(Cl)ccc1Cl, C=CCNC(=O)N1CC(Oc2cccc(Cl)c2)C1 is lower in melting point: 161 to 162 °C for the first, 87 to 89 °C for the second.

Compared with OC(CCl)(Cc1ccc(Cl)cc1)c1ccc2c(c1)Cc1cc(Cl)ccc1-2 (stereo not given), COc1cc2c(c(Cl)c1Cl)C(=O)C(C)(c1ccc(Cl)cc1)C2 (stereo not given) is higher in melting point: 108 °C for the first, 176 to 178 °C for the second.

First: COC(=O)c1cc(OCC=C(Cl)Cl)cc(Cl)c1OCC=C(Cl)Cl
Second: COC(=O)c1c(C)n(-c2cc([N+](=O)[O-])c(C)cc2C)cc(Cl)c1=O
The melting point of the first is lower: 63 °C for the first, 266 °C for the second.

First: COC(=S)c1cc(C)cc(C)c1
Second: Cc1cc(C#N)cc(C(=O)c2c(C(C)C)c(=O)[nH]c(=O)n2CC(C)C)c1
The melting point of the first is lower: 46 °C for the first, 200 to 201 °C for the second.

First: O=c1[nH]c2ccccc2n2cnc(-c3ccc(F)cc3)c12
Second: FC(F)(F)Oc1ccc2nc(-c3ccccc3)[nH]c2c1
The melting point of the first is higher: > 300 °C for the first, 208 to 210 °C for the second.

First: COc1cc2c(cc1OC)CCC(C(=O)N1CCN(C(=O)c3cc(OC)c(OC)cc3OC)CC1)=C2
Second: COc1cc2c(c(OC)c1OC)C(=O)CC2
The melting point of the first is higher: 171 to 172 °C for the first, 114 to 115 °C for the second.

First: Cn1cc(C(=O)C(Cl)Cl)c(=O)c(-c2cccc(F)c2)c1
Second: CC(=O)N1CCc2ccc(C(=O)c3cccc(F)c3)cc2C1
The melting point of the first is higher: 183 to 184 °C for the first, 136 to 139 °C for the second.

First: O=C(O)Cc1ccc(-n2cc(F)cn2)cc1
Second: COC(=O)c1ccc(CN2N=C(C(C)(C)C)CC2=O)cc1
The melting point of the first is higher: 165 to 167 °C for the first, 161 to 162 °C for the second.

Compared with CCOC(=O)C(=O)Nc1c(C)c(C)c2c(c1C)C(c1ccc(C(C)C)cc1)CO2 (stereo not given), Cc1ccc(C(C)C)c2c1CC(NNc1ncnc3c1ncn3C1OC(CO)C(O)C1O)CO2 (stereo not given) is higher in melting point: 83 to 84 °C for the first, 98 to 101 °C for the second.

First: O=C(Oc1ccccc1)c1ccc2c(c1)S(=O)(=O)NCN2C1CC1
Second: CN1C(C(=O)Nc2ccc(O)c(=O)cc2)=C(O)c2ccccc2S1(=O)=O
The melting point of the first is lower: 160 to 162 °C for the first, 258 to 265 °C for the second.

Compared with O=CC1CC(n2ccc(=O)[nH]c2=O)OC1COC(c1ccccc1)(c1ccccc1)c1ccccc1 (stereo not given), CCN(c1ccccc1)c1ccc(C(=O)c2ccccc2)cc1N is lower in melting point: 100 °C for the first, 82 to 82.5 °C for the second.

First: O=C1c2ccccc2C(=O)N1CCCCOc1ccc(-n2cnnn2)cc1
Second: Cc1c(-c2ccccc2)oc2c(SCCCCCl)cccc2c1=O
The melting point of the first is higher: 143 to 145 °C for the first, 81 to 84 °C for the second.

First: CCc1c(OC)cc2c(c1O)C(=O)C[C@H]1CCN(C)C[C@@H]21 (relative stereo)
Second: COc1ccc2c(c1)CCC(c1ccc(OC)cc1OC)C2=O (stereo not given)
The melting point of the first is higher: 221 to 223 °C for the first, 116 to 118 °C for the second.

First: CCC(C(=O)C(C)C(O)C(C)CCC1=C(C(=O)O)C(O)=C(C)CC1=[N+]=[N-])C1OC(CC)(C2CCC(O)(CC)C(C)O2)CC1C (stereo not given)
Second: CC(C)N(Cc1c(-c2ccccc2)sc(N)c1C(=O)c1ccc(Cl)cc1)C(C)C
The melting point of the first is lower: 137 to 138 °C for the first, 185 to 187 °C for the second.

First: Nc1c(-c2cc(Cl)ccc2O)c2c(Cl)cc(Cl)cc2[nH]c1=O
Second: CC(C)c1nc(C(N)=O)c2n1-c1ccc(Cl)cc1C(c1ccccc1Cl)=NC2
The melting point of the first is lower: 275 to 277 °C for the first, 328 to 330 °C for the second.

First: COc1ccc(C(=O)Nc2c(Cl)cncc2Cl)nc1OC1CCCC1
Second: O=C(NC1(C2CC2)CC1)c1c(NC(=O)c2cc(C(F)(F)F)nn2-c2ncccc2Cl)c(Cl)cc2cn[nH]c12
The melting point of the first is lower: 164 to 166 °C for the first, > 250 °C for the second.

First: CC(C)Oc1ccc(-c2nn(C(C)c3oc4ccccc4c(=O)c3-c3cccc(F)c3)c3ncnc(N)c23)cc1Cl (stereo not given)
Second: O=c1cc(-c2ccc(F)cc2)c2ccc(Sc3cc(F)cc(C(O)(c4nccs4)C(F)(F)F)c3)cc2o1 (stereo not given)
The melting point of the first is higher: 198 to 200 °C for the first, 72 to 73 °C for the second.

Nc1cc(CCC(=O)N(c2ccccc2)c2ccccc2)ccc1O and O=C(CN1CCN(c2ccc(CO)c(Cl)c2)CC1)c1cc2ccccc2o1 cannot be ordered by melting point: 170 to 172 °C for the first, 169 to 172 °C for the second.

Compared with CCc1nc2c(C)c([N+](=O)[O-])c(C)nc2[nH]1, CCCCCCCCCCCC(=O)Oc1ccc2[nH]c3c(C)c4ccncc4c(C)c3c2c1 is higher in melting point: 146 to 149 °C for the first, 188 to 190 °C for the second.

First: Cc1ccccc1OCCOS(N)(=O)=O
Second: C=CCOc1cccc([N+](=O)[O-])c1OC
The melting point of the first is lower: 81.5 to 83 °C for the first, 93 to 94 °C for the second.

First: NS(=O)(=O)c1nccn1-c1nccs1
Second: CCC(=O)c1cccc(C(N)=O)c1
The melting point of the first is higher: 157 to 162 °C for the first, 121 to 122 °C for the second.

First: OCC1CC(O)C(n2c(NC3CC3)nc3cc(Cl)c(Cl)cc32)C1 (stereo not given)
Second: CCC1CCCCN1CCNc1ccnc2cc(Cl)ccc12 (racemic)
The melting point of the first is higher: 251 to 253 °C for the first, 115 to 117 °C for the second.

First: O=c1n(-c2ccccc2)c(=O)n(SC(Cl)(Cl)Cl)n1SC(Cl)(Cl)Cl
Second: CC(C)CC(=O)Nc1cccc(-c2ccnc3c(-c4cc(Cl)cc(Cl)c4)cnn23)c1
The melting point of the first is lower: 175 °C for the first, 223 to 225 °C for the second.

First: CC(NC(=O)c1cccc([N+](=O)[O-])c1)C(F)(F)F (stereo not given)
Second: CC(C)(C)[Si](C)(C)OC1CN(c2ccc([N+](=O)[O-])cc2F)C1
The melting point of the first is higher: 130 to 131 °C for the first, 98.5 to 99.5 °C for the second.

First: Cc1noc(C)c1CN1C(=O)C2(COc3cc4c(cc32)OCO4)c2ccccc21 (stereo not given)
Second: C1=Cc2ccc3c(c2CC1)=C1CC=c2ccccc2=C1N=3
The melting point of the first is lower: 165 to 167 °C for the first, 218 °C for the second.

Compared with COc1ccc(N2CCN(c3ccc(N)cc3)CC2)cn1, CCc1nn2c(-c3ccc(OC)cc3Cl)cccc2c1N(CCF)CCOC is lower in melting point: 111 °C for the first, 45.8 to 52.8 °C for the second.

First: CC(=O)N1CCN(CC#CCn2cncc2C)C1=O
Second: Cc1ncc(C(=O)N2CCCC2)s1
The melting point of the first is higher: 93 to 95 °C for the first, 71 to 72 °C for the second.

First: O=C(O)CCCCCCCCNS(=O)(=O)c1ccc(Br)cc1
Second: CCCCCC(C)(c1ccc(O)c(C)c1)c1ccc(O)c(C)c1
The melting point of the first is higher: 124 to 125 °C for the first, 99 to 101 °C for the second.

First: COC1(C)COC(C)(OC)CO1 (stereo not given)
Second: Oc1[nH]nc2c1-c1ccc(Cl)cc1CC2
The melting point of the first is lower: 126 to 128 °C for the first, 232 to 233 °C for the second.
